Assay [1] in a line: Antioxidant activity in plasma assessed as ABTS radical scavenging activity relative to trolox. Format: functional, cell-free.
Assay [2] deals with Erythrocyte. As to the kind of experiment: Antioxidant activity in Homo sapiens (human) erythrocytes assessed as protection against t-BHP-induced oxidative stress at 0.1 to 100 uM. As to conditions: TDE = time-dependent effect. Format: functional, cell-based.
Assay [3] concerns Erythrocyte. The experiment in a line: Antioxidant activity in Homo sapiens (human) erythrocytes assessed as protection against t-BHP-induced oxidative stress measured up to 180 min. Format: functional, cell-based.

As for `O=c1c(O)c(-c2ccc(O)c(O)c2)oc2cc(O)cc(O)c12`, the fold change (FC) in assay [1] amounted to 6. Also, the Activity entry is “tde” in assay [2] and “Dose-dependent effect” in assay [3].

(Values after ChEMBL document CHEMBL3046523, “Protection of protein carbonyl formation by quercetin in erythrocytes subjected to oxidative stress” (Med Chem Res, 2010).)
